Source: the NIST ThermoML archive (doi:10.1016/j.fluid.2014.01.004)
± gives the expanded uncertainty stated by the source.

Legend:
[1] = DTA
[2] = Molar enthalpy of transition or fusion; settings: DSC

Structure (SMILES) | Triple point temperature ([1]; Crystal 1) [K] | Triple point temperature ([1]; Crystal 2) [K] | Molar enthalpy of transition or fusion ([2]; Crystal 2) [kcal/mol] | Triple point temperature ([1]; Crystal) [K] | Molar enthalpy of transition or fusion ([2]; Crystal) [kcal/mol]
CCCCCCCCCCCCCC(=O)O [tetradecanoic acid] | 328.13 ± 0.48 | 327.65 ± 0.48 | 10.5 ± 0.43 |  | 
CCCCCCCCCCCCCCO [1-tetradecanol] | 311.39 ± 0.39 | 310.45 ± 0.41 | 11.4 ± 0.526 |  | 
CCCCCCCCCCCC(=O)O [dodecanoic acid] | 318.29 ± 0.41 | 317.9 ± 0.6 | 8.51 ± 0.335 |  | 
CCCCCCCCCCCCCCCCO [1-hexadecanol] | 323.17 ± 0.41 | 322.27 ± 0.49 | 13.5 ± 0.765 |  | 
CCCCCCCCCCCCCCCC(=O)O [hexadecanoic acid] |  |  |  | 336.34 ± 0.63 | 12.7 ± 0.574
CCCCCCCCCCCCCCCCCCO [1-octadecanol] | 331.82 ± 0.49 | 330.97 ± 0.39 | 15.6 ± 0.908 |  | 
